Measured values taken from patent US8148391B2 (Cephalon, Inc., priority 2006, dated 2012).
Like-named read-outs stand apart in the source and are kept apart here.

Legend:
[1] = molecular target: T1, c-Met (cytoplasmic domain) (Homo sapiens, UniProt P08581); assay: c-Met Kinase Assay (same methods as for ALK, with modifications); type: biochemical
T1 construct: 10 ng/mL c-Met (cytoplasmic domain, Invitrogen Corporation #PV3143); purchased Invitrogen Corporation PV3143
Method in brief: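 This plate-based kinase format uses immobilized phospholipase C-γ as substrate, phosphorylated by c-Met cytoplasmic domain (10 ng/mL) at 37° C for 15 minutes.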

[2] = molecular target: T2, baculovirus-expressed ALK (Homo sapiens, UniProt Q9UM73); assay: ALK Kinase Assay (ELISA-type, time-resolved fluorescence); type: biochemical
T2 construct: host or cells: baculovirus expression system
T2 sequence (Q9UM73 19-1620): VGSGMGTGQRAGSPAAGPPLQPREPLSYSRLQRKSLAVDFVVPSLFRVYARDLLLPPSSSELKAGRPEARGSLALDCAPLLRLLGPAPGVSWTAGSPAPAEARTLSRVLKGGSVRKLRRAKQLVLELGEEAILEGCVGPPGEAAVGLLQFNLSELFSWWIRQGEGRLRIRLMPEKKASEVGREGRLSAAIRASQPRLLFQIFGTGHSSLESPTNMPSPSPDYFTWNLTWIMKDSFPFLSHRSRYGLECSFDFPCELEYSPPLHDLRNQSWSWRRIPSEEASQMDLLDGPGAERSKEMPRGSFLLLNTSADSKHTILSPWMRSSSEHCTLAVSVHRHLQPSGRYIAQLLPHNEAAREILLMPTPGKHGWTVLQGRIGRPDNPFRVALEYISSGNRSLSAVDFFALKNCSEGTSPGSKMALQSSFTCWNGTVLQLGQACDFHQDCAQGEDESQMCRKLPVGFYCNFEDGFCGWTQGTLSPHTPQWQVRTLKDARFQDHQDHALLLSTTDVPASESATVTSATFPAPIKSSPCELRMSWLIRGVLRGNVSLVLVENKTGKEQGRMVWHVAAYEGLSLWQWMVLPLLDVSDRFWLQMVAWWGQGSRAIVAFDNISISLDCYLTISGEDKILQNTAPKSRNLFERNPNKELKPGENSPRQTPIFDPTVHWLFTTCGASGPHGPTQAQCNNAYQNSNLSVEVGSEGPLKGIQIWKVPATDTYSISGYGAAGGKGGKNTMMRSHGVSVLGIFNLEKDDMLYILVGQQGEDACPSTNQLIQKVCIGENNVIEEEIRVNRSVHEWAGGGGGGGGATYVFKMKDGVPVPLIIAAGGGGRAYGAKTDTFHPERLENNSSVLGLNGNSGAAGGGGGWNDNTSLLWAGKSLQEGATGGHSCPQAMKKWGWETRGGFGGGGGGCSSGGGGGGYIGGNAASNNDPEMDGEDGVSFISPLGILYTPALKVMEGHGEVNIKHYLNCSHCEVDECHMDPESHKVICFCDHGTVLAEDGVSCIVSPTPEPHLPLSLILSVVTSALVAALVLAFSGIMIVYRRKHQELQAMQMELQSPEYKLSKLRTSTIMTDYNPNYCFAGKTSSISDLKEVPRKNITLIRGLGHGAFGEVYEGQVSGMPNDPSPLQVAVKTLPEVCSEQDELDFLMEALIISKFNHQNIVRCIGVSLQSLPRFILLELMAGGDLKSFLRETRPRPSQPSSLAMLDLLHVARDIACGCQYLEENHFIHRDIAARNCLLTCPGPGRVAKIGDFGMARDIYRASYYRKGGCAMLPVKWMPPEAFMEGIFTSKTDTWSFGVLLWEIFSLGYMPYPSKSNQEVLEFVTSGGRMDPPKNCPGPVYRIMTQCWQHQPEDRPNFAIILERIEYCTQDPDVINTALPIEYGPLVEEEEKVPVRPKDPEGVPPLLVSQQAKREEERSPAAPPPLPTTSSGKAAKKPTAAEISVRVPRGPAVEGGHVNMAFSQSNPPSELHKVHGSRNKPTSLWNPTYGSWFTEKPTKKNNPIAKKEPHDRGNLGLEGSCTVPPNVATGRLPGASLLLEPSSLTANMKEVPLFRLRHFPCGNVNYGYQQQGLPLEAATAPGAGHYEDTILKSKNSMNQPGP
Method in brief: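 Substrate coating: phospholipase C-γ, 10 μg/mL in TBS. Kinase step: 30 ng/ml ALK, 15 min, 37° C. Detection and analysis: Eu-N1 PT66 antibody, with IC50 fitted as a sigmoidal variable-slope dose-response curve.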

[3] = 1 μM ATP (Km level), 10 ng/mL c-Met, read-out: cMet Activity (c-Met kinase inhibition, IC50 class)
[4] = 1 μM ATP (Km level), 30 ng/ml ALK, 37° C., 15 minutes, read-out: ALK Activity (ALK kinase inhibition, IC50 class)
[5] = c-Met kinase inhibition, 1 μM ATP (Km level), read-out: cMet Activity
[6] = ALK kinase inhibition, 1 μM ATP (Km level), read-out: ALK Activity
[7] = c-Met kinase inhibition, 1 μM ATP, read-out: cMet Activity
[8] = ALK kinase inhibition, 1 μM ATP, read-out: ALK Activity
[9] = 1 μM ATP (Km level), read-out: cMet Activity (c-Met Kinase Inhibition, IC50)
[10] = 1 μM ATP (Km level), read-out: ALK Activity (ALK Kinase Inhibition, IC50)

T1 sequence (P08581 956-1390 limits assumed): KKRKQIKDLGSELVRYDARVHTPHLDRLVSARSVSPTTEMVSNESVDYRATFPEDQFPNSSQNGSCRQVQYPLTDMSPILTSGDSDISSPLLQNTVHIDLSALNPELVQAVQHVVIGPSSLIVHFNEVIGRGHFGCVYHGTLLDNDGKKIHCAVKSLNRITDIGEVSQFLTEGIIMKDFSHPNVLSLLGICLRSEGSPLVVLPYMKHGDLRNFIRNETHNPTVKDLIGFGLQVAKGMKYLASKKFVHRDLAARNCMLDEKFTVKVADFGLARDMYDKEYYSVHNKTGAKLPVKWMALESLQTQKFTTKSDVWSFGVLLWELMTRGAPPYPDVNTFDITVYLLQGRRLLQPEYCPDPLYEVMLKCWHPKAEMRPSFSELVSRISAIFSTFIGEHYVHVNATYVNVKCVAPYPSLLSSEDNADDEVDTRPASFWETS

| SMILES | IC50 [1, 7] [nM] | IC50 [2, 8] [nM] | IC50 [1, 9] [nM] | IC50 [2, 10] [nM] | other results |
| --- | --- | --- | --- | --- | --- |
| CNc1nc(OC)ccc1Nc1nc(Nc2cc3c(cc2OC)CCN(CC(=O)N(C)C)CC3)ncc1Cl [Example 1208, 2-{7-[5-Chloro-4-(6-methoxy-2-methylamino-pyridin-3-ylamino)-pyrimidin-2-ylamino]-8-methoxy-1,2,4,5-tetrahydro-benzo[d]azepin-3-yl}-N,N-dimethyl-acetamide] |  |  |  |  | IC50 [1, 3]: > 10000 nM; IC50 [2, 4]: < 100 nM |
| CN1C(=O)CCC(C)(C)c2cc(Nc3ncc(Cl)c(N[C@@H]4CCCC[C@H]4NS(C)(=O)=O)n3)ccc21 [Example 385, N-{(1R,2R)-2-[5-Chloro-2-(1,5,5-trimethyl-2-oxo-2,3,4,5-tetrahydro-1H-benzo[b]azepin-7-ylamino)-pyrimidin-4-ylamino]-cyclohexyl}-methanesulfonamide] |  |  |  |  | IC50 [1, 5]: 100 to 1000 nM; IC50 [2, 6]: < 100 nM |
| CCN1CC2CC(C1)c1cc(Nc3ncc(Cl)c(NC4C5C=CC(C5)C4C(N)=O)n3)ccc12 (stereo not drawn) [Example 160, (2-exo,3-exo)-3-[5-Chloro-2-(10-ethyl-10-aza-tricyclo[6.3.1.0*2,7*]dodeca-2,4,6-trien-4-ylamino)-pyrimidin-4-ylamino]-bicyclo[2.2.1]hept-5-ene-2-carboxylic acid amide] |  |  |  |  | IC50 [1, 5]: 1000 to 10000 nM; IC50 [2, 6]: 100 to 1000 nM |
| CNC(=O)c1cc(Cl)cc(Cl)c1Nc1nc(Nc2ccc3c(c2)CCN(CCOC)CC3)ncc1Cl [Example 314, 3,5-Dichloro-2-{5-chloro-2-[3-(2-methoxy-ethyl)-2,3,4,5-tetrahydro-1H-benzo[d]azepin-7-ylamino]-pyrimidin-4-ylamino}-N-methyl-benzamide] |  |  |  |  | IC50 [1, 5]: < 100 nM; IC50 [2, 6]: 100 to 1000 nM |
| O=C1CCCc2cc(Nc3ncc(Cl)c(Nc4ccccc4-c4cnco4)n3)ccc2N1 [Example 997, 7-[5-Chloro-4-(2-oxazol-5-ylphenylamino)-pyrimidin-2-ylamino]-1,3,4,5-tetrahydro-benzo[b]azepin-2-one] |  |  | 100 to 1000 | 100 to 1000 |  |
| CCNC(=O)c1ccccc1Nc1nc(Nc2cc3c(cc2OC)CCN(CC(F)F)CC3)ncc1Cl [Example 767, 2-{5-Chloro-2-[3-(2,2-difluoro-ethyl)-8-methoxy-2,3,4,5-tetrahydro-1H-benzo[d]azepin-7-ylamino]-pyrimidin-4-ylamino}-N-ethyl-benzamide] |  |  | > 10000 | < 100 |  |
| CNC(=O)c1cccc(C)c1Nc1nc(Nc2ccc3c(c2)C(=O)NCCC3)ncc1Cl [Example 401, 2-[5-Chloro-2-(1-oxo-2,3,4,5-tetrahydro-1H-benzo[c]azepin-8-ylamino)-pyrimidin-4-ylamino]-3,N-dimethyl-benzamide] |  |  |  |  | IC50 [1, 5]: 100 to 1000 nM; IC50 [2, 6]: > 10000 nM |
| CCN(CCO)Cc1cc(Nc2nc(Nc3ccc4c(c3OC)CCC(N3CCOCC3)CC4)ncc2Cl)ccc1F (stereo not shown) [Example 740, 2-([5-[5-Chloro-2-(1-methoxy-7-morpholin-4-yl-6,7,8,9-tetrahydro-5H-benzocyclohepten-2-ylamino)-pyrimidin-4-ylamino]-2-fluoro-benzyl}-ethylamino)-ethanol] |  |  | > 10000 | < 100 |  |
| CNC(=O)c1ccccc1Nc1nc(Nc2ccc3c(c2)CCC(NCC(F)F)CC3)ncc1Cl (stereo not shown) [Example 660, 2-{5-Chloro-2-[7-(2,2-difluoro-ethylamino)-6,7,8,9-tetrahydro-5H-benzocyclohepten-2-ylamino]-pyrimidin-4-ylamino}-N-methyl-benzamide] |  |  | < 100 | < 100 |  |
| CCN1C(=O)C(N(C)C)CCc2c1ccc(Nc1ncc(Cl)c(Nc3ccccc3S(=O)(=O)N(C)C)n1)c2OC (stereo not shown) [Example 1348, 2-[5-Chloro-2-(3-dimethylamino-1-ethyl-6-methoxy-2-oxo-2,3,4,5-tetrahydro-1H-benzo[b]azepin-7-ylamino)-pyrimidin-4-ylamino]-N,N-dimethyl-benzenesulfonamide] |  |  |  |  | IC50 [1, 3]: > 10000 nM; IC50 [2, 4]: < 100 nM |
| CCN1CC(=O)N(CC)c2cc(Nc3ncc(Cl)c(N[C@@H]4CCCC[C@H]4NS(C)(=O)=O)n3)c(OC)cc2C1 [Example 736, N,N-{(1R,2R)-2-[5-Chloro-2-(1,4-diethyl-7-methoxy-2-oxo-2,3,4,5-tetrahydro-1H-benzo[e][1,4]diazepin-8-ylamino)-pyrimidin-4-ylamino]-cyclohexyl}-methanesulfonamide] |  |  | > 10000 | 100 to 1000 |  |
| CCN1C(=O)CCC(C)(C)c2ccc(Nc3ncc(Cl)c(Nc4ccc(N(C)C)cc4S(=O)(=O)N(C)C)n3)cc21 [Example 850, 2-[5-Chloro-2-(1-ethyl-5,5-dimethyl-2-oxo-2,3,4,5-tetrahydro-1H-benzo[b]azepin-8-ylamino)-pyrimidin-4-ylamino]-5-dimethylamino-N,N-dimethyl-benzenesulfonamide] |  |  | 100 to 1000 | < 100 |  |
| COc1cc(N2CCOCC2)ccc1Nc1nc(Nc2ccc3c(c2)CCCCN3C)ncc1Cl [Example 105, 5-Chloro-N*4*-(2-methoxy-4-morpholin-4-yl-phenyl)-N*2*-(1-methyl-2,3,4,5-tetrahydro-1H-benzo[b]azepin-7-yl)-pyrimidine-2,4-diamine] |  |  |  |  | IC50 [1, 5]: > 10000 nM; IC50 [2, 6]: < 100 nM |
| CC1(C)CCC(=O)Nc2cc(Nc3ncc(Cl)c(Nc4c(F)cccc4C(=O)NCC#N)n3)ccc21 [Example 1080, 2-[5-Chloro-2-(5,5-dimethyl-2-oxo-2,3,4,5-tetrahydro-1H-benzo[b]azepin-8-ylamino)-pyrimidin-4-ylamino]-N-cyanomethyl-3-fluoro-benzamide] |  |  |  |  | IC50 [1, 3]: < 100 nM; IC50 [2, 4]: < 100 nM |
| C#CCNC(=O)c1cccc(F)c1Nc1nc(Nc2ccc3c(c2)NC(=O)CCC3(C)C)ncc1Cl [Example 1406, 2-[5-Chloro-2-(5,5-dimethyl-2-oxo-2,3,4,5-tetrahydro-1H-benzo[b]azepin-8-ylamino)-pyrimidin-4-ylamino]-3-fluoro-N-prop-2-ynyl-benzamide] |  |  |  |  | IC50 [1, 3]: < 100 nM; IC50 [2, 4]: 100 to 1000 nM |
| COc1cc2c(cc1Nc1ncc(F)c(Nc3ccc(N4CCOCC4)cc3OC)n1)CCN(CC(=O)OC(C)C)CC2 [Example 811, {7-[5-Fluoro-4-(2-methoxy-4-morpholin-4-yl-phenylamino)-pyrimidin-2-ylamino]-8-methoxy-1,2,4,5-tetrahydro-benzo[d]azepin-3-yl}-acetic acid isopropyl ester] |  |  | > 10000 | 100 to 1000 |  |

More lines, main results first:

| IC50 [1, 7] [nM] | IC50 [2, 8] [nM] | IC50 [1, 9] [nM] | IC50 [2, 10] [nM] | SMILES | other results |
| --- | --- | --- | --- | --- | --- |
| 1000 to 10000 | < 100 |  |  | CC(C)CN1C(=O)CCC(C)(C)c2ccc(Nc3ncc(Cl)c(N[C@H]4[C@@H](C(N)=O)[C@@H]5C=C[C@H]4C5)n3)cc21 [Example 1593, (1S,2S,3R,4R)-3-[5-Chloro-2-(1-isobutyl-5,5-dimethyl-2-oxo-2,3,4,5-tetrahydro-1H-benzo[b]azepin-8-ylamino)-pyrimidin-4-ylamino]-bicyclo[2.2.1]hept-5-ene-2-carboxylic acid amide] |  |
| 1000 to 10000 | 100 to 1000 |  |  | COCCN1CCc2ccc(Nc3ncc(Cl)c(Nc4c(F)cccc4C(=O)NCC4CC4)n3)cc2CC1 [Example 1711, 2-{5-Chloro-2-[3-(2-methoxy-ethyl)-2,3,4,5-tetrahydro-1H-benzo[d]azepin-7-ylamino]-pyrimidin-4-ylamino}-N-cyclopropylmethyl-3-fluoro-benzamide] |  |
| 100 to 1000 | 100 to 1000 |  |  | C#CCNC(=O)c1cccc(F)c1Nc1nc(Nc2ccc3c(c2)N(C(=O)CN2CCCC2)CCCC3(C)C)ncc1Cl [Example 1604, 2-{5-Chloro-2-[5,5-dimethyl-1-(2-pyrrolidin-1-yl-acetyl)-2,3,4,5-tetrahydro-1H-benzo[b]azepin-8-ylamino]-pyrimidin-4-ylamino}-3-fluoro-N-prop-2-ynyl-benzamide] |  |
| < 100 | 1000 to 10000 |  |  | CNCc1ccccc1Nc1nc(Nc2ccc3c(c2)CN(C)C(=O)CC3)ncc1Cl [Example 1808, 8-[5-Chloro-4-(2-methylaminomethyl-phenylamino)-pyrimidin-2-ylamino]-2-methyl-1,2,4,5-tetrahydro-benzo[c]azepin-3-one] |  |
| < 100 | < 100 |  |  | C#CCNC(=O)c1cccc(F)c1Nc1nc(Nc2ccc3c(c2)OCCCN3C(C)=O)ncc1Cl [Example 1725, 2-[2-(9-Acetyl-6,7,8,9-tetrahydro-5-oxa-9-aza-benzocyclohepten-3-ylamino)-5-chloro-pyrimidin-4-ylamino]-3-fluoro-N-prop-2-ynyl-benzamide] |  |
| > 10000 | < 100 |  |  | CC(C)N1CCCC(C)(C)c2ccc(Nc3ncc(Cl)c(N[C@H]4[C@@H](C(N)=O)[C@@H]5C=C[C@H]4C5)n3)cc21 [Example 1628, (1S,2S,3R,4R)-3-[5-Chloro-2-(1-isopropyl-5,5-dimethyl-2,3,4,5-tetrahydro-1H-benzo[b]azepin-8-ylamino)-pyrimidin-4-ylamino]-bicyclo[2.2.1]hept-5-ene-2-carboxylic acid amide] |  |
| < 100 | 1000 to 10000 |  |  | CNC(=O)c1cccc(Cl)c1Nc1nc(Nc2ccc3c(c2)CCOC(=O)N3C)ncc1Cl [Example 1743, 3-Chloro-2-[5-chloro-2-(5-methyl-6-oxo-5,6,8,9-tetrahydro-7-oxa-5-aza-benzocyclohepten-2-ylamino)-pyrimidin-4-ylamino]-N-methyl-benzamide] |  |
